{"source": "patent US8221736B2", "about": "“Semiochemical” (Rothamsted Research Limited, priority 1999, dated 2012)", "key": {"[1]": {"tested_on": "broad bean, V. faba (cv The Sutton)", "assay": "Induction of volatile release by bean plants (air entrainment, GC/GC-MS)", "format": "in vivo, Vicia faba", "conditions": "24 hour exposure at 100 μg/l in air; from some replicates", "description": "(§1) A possible role for the compound as an airborne plant signal was investigated using the broad bean, V. faba (cv The Sutton). Plants were kept for 24 hours in clean air or in air incorporating cis-jasmone at 100 μg/l; subsequently, samples of volatiles released by the plants were obtained by entrainment over 4 periods of 48 hours, i.e. up to 192 hours after the end of the treatment. The cis-jasmone itself was undetectable after 48 hours. […] There was also, from some replicates, enhancement of (E,E)-α-farnesene, (−)-β-caryophyllene and (E)-4,8-dimethyl-1,3,7-nonatriene. These compounds have all been implicated in herbivorous insect-induced production and increased parasitoid foraging. The nonatriene can also be produced innately by plants imitating damage for defence against herbivores and which are thus attractive to parasitoids.\nBean plants, V. faba (cv The Sutton) were grown under standard glasshouse conditions until the 2-4 leaf stage when they were rinsed free of soil and transplanted into baked glass jars containing washed sand, with 3 plants per jar. These were left for 1-2 days to acclimatize. Plants to be treated (three jars of three plants each) were sealed in a 25 l glass tank for 24 hours with either cis-jasmone or methyl jasmonate (2.5 mg) applied to a piece of filter paper (Whatman No. 1) placed on the floor of the tank. […]"}, "[2]": {"tested_on": "lettuce aphid Nasonovia ribis-nigri", "assay": "4-way olfactometer behavioural assay with alate lettuce aphids", "format": "in vivo", "conditions": "1 μg in hexane on filter paper, 10 min, P<0.05", "description": "Behavioural assays were done in a Perspex™ olfactometer similar to that described in J. Entomol. Scand. 1, 63-73 (1970) (Pettersson), with a weak airstream directed towards the centre from each of 4 side arms. The test compound (1 μg) in hexane (10 μl) was placed on filter paper (Whatman No. 1) at the end of one of the side arms, with hexane alone used as a control in the other arms. One alate virginopara of N. ribis-nigri was placed in the centre of the arena and its movements observed over 10 min. The apparatus, maintained at 24° C., was lit from above by fluorescent tubing and was rotated 90° every 2.5 min to avoid any directional bias. The experiment was replicated 6 times and results analysed by Student's t-test."}, "[3]": {"tested_on": "seven-spot ladybird, Coccinella seplempunclata", "assay": "Olfactometer assay with seven-spot ladybird", "format": "in vivo", "conditions": "0.5 μl microcaps, position noted every 2 min for 20 min, 8 replicates; control arms 2.4±0.69; P<0.005", "description": "Since semiochemicals acting as repellents or inhibitors of host attractancy for herbivorous insects are often involved in predation or parasitism, the activity of cis-jasmone was also investigated at higher trophic levels. […] These experiments indicate a behavioural role for cis-jasmone in influencing interactions between plants, herbivorous insects and their predators and parasitoids. Apparatus and methodology were similar to that employed for aphids (above). The test compound was applied in 0.5 μl microcaps (Drummond Sci. Co.) at the end of one of the side arms and each arm was supplied with moist filter paper to minimize differences in relative humidity. Individual C. septempunctata were introduced into the centre of the arena and their positions noted every 2 min for 20 min. The experiment was replicated 8 times and results analysed as above."}, "[4]": {"tested_on": "aphid parasitoid Aphidius ervi", "assay": "Wind tunnel responses of A. ervi to V. faba plants exposed to the compound", "format": "in vivo", "description": "as §1\nNaive female A. ervi were flown in a wind tunnel, as described in J. Chem. Ecol. 16, 381-396 (1996) (Poppy et al.). The parasitoids were released 25 cm downwind (single choice tests) or 40 cm downwind (dual choice test) of the target, which was either a plant or a synthetic compound (10 μg in 10 μl hexane) placed on a 2×1 cm strip of filter paper (Whatman No. 1) surrounded by a ring of green crêpe paper. The proportions of parasitoids responding with an oriented flight to the synthetic chemicals were calculated each day on 3 separate days. These values were then subjected to a logit transformation to normalize the data before being analysed by ANOVA followed by Tukey post-hoc tests. The number of parasitoids orienting upwind to the single plant target were recorded and subjected to a χ^2 contingency test (Pearson method on Genstat—see Genstat 5 Committee. Genstat 5 Reference Manual, Release 3 (Clarendon Press, Oxford, 1993)) to determine whether an orienting response was linked to the type of plant treatment. The numbers orienting to each plant in the dual choice test were analysed by a χ^2 to determine whether one plant was more attractive than the other. […]"}, "adult Lepidoptera": {"tested_on": "adult Lepidoptera", "conditions": "U.S. Pat. No. 5,665,344; cited from earlier work"}}, "data": [{"smiles": "CC/C=C\\CC1=C(C)CCC1=O", "note": "[cis-jasmone]", "values": [{"measurement": "release of (E,E)-α-farnesene, (−)-β-caryophyllene and (E)-4,8-dimethyl-1,3,7-nonatriene", "setting": "[1]", "result": "enhancement"}, {"measurement": "mean number of entries into the treated arm", "setting": "[2]; 6 replicates, control arms 4.3±0.58", "result": "2.0±0.58"}, {"measurement": "mean time spent in the treated arm", "setting": "[2]; control arms 2.1±0.36 minutes", "result": "0.5 ± 0.16", "unit": "min"}, {"measurement": "mean number of observations in the treated arm", "setting": "[3]", "result": "4.1±1.55"}, {"measurement": "% showing oriented flight", "setting": "[4]; V. faba plants 48 hr after exposure (100 μg/l in air), single choice test, hexane control 20, P<0.01", "result": 44, "unit": "%"}, {"measurement": "parasitoids oriented towards the treated plant compared to the control", "setting": "[4]; dual choice test of treated or untreated plants", "result": "over 3 times"}, {"measurement": "% oriented to treated plant", "setting": "[4]; dual choice test, treated plant versus control plant, 48 hr after exposure (100 μg/l in air), control plant 10, P<0.05", "result": 32, "unit": "%"}, {"measurement": "behavioural effect on adult Lepidoptera", "setting": "adult Lepidoptera", "result": "attract adult Lepidoptera"}]}]}
